Literature values as cited in patent US11730745B1, “Kit and new method of treatment for skin basal cell and squamous cell carcinoma” (priority 2022, dated 2023).

System: cancer
Conditions: additional treatment with Selenium

In the case of `[Se]` [Selenium], the “Decrease of the frequency of cancer” value is listed as “more than 35%”.
